Results published in patent US11529299B2, “Hair care compositions comprising a 2-pyridinol-n-oxide material and an iron chelator” (The Procter & Gamble Company, priority 2017, dated 2022).

Experiments:
[1] = tested on: Malassezia furfur; experiment: Minimum inhibitory concentration (MIC), growth inhibition of Malassezia by culture optical density; format: cell-based; settings: material alone, OD <= 20% of untreated control, 33° C., two days, M. Dixon medium pH 5.5, average of two replicates; for MIC: Malassezia furfur, 48 h
Description: To measure the growth inhibition properties of test materials against Malassezia, the following protocol is followed. The Malassezia furfur is cultured in 50 ml M. […] The pH is adjusted to 5.5 using 1N HCl. The media is autoclaved. Starting cultures are prepared by incubating freezer stocks with shaking at 33° C. The inoculum of Malassezia cells is 5.5×10^5 cfu/ml. Cells are incubated at 33° C. for two days. After the two day incubation optical density is read and background subtracted. MIC values are determined by averaging the results from two replicate experiments.

[2] = tested on: M.Furfur 7892 cells; experiment: Modified Fractional Inhibitory Concentration (MFIC), anti-Malassezia activity of combinations; format: cell-based, Malassezia furfur; settings: titrated from 400 ppm; for MFIC: Table 3, chelator as Material #2 combined with the 2-pyridinol-N-oxide material at 1/2 its MIC; for Modified Fractional Inhibitory Concentration (MFIC): lowest concentration of Material #2 inhibiting growth with Material #1 (1-hydroxy-4-methyl-6-(2,4,4-trimethylpentyl)-2-pyridone monoethanolamine salt) at 1/2 its MIC, 33° C., 2 days
Description: A Modified Fractional Inhibitory Concentration (MFIC) is used to determine the combinatorial effects of two chemicals on anti-Malassezia activity in a tissue culture setting. […] I. […] Low levels of M.Furfur 7892 cells are inoculated into each well of a 96 well plate. • 3. […] Plates are incubated at 33° C. for 2 days. • 6. Optical densities (OD's) are then determined using a spectrophotometer. II. […] Inhibition of growth is determined if the culture optical density is less than or equal to ⅕ (20%) of the culture optical density of the untreated control • 2.

[3] = from NIST Standard Reference Database 46; cited from earlier work

SMILES	Minimum inhibitory concentration (MIC) [1]	MFIC [2]	Modified Fractional Inhibitory Concentration (MFIC) [2]	Log K1 (iron binding affinity) [3]	MIC [1]
O=C(O)CN(CCN(CC(=O)O)CC(=O)O)CCN(CC(=O)O)CC(=O)O [Diethylenetriaminepentaacetic acid]	>400 ppm	37 ppm	37 ppm	28	–
Cc1cc(CC(C)CC(C)(C)C)n(O)c(=O)c1.NCCO (centres unmarked) [1-hydroxy-4-methyl-6-(2,4,4-trimethylpentyl)-2-pyridone monoethanolamine salt]	–	–	–	–	25 mg/L
CC(C(=O)O)N(CC(=O)O)CC(=O)O (centres unmarked) [Methylglycine diacetic acid (MGDA), Methylglycine diacetic acid]	–	>400 ppm	–	16	–
O=P(O)(O)CN(CCN(CP(=O)(O)O)CP(=O)(O)O)CCN(CP(=O)(O)O)CP(=O)(O)O [Diethylenetriaminepentakis(methylenephosphonic acid)]	>400 ppm	50 ppm	50 ppm	23	–
CC(=O)N(O)CCCCCNC(=O)CCC(=O)N(O)CCCCCNC(=O)CCC(=O)N(O)CCCCCN [Desferrioxamine]	–	5 ppm	5 ppm	31	> 400 mg/L
O=C(O)CC(O)(CC(=O)O)C(=O)O [Citric Acid]	–	>400 ppm	–	11	–
